Data on eight molecules can be found in ChEMBL document CHEMBL5532641, “MNK, mTOR or eIF4E-selecting the best anti-tumor target for blocking translation initiation” (Eur J Med Chem, 2023).

One series deals with A549. The series can be described thus: cells. It counts as functional, cell-based. To be noted: Homo sapiens, A549, 70 min.
The next series has as its system Lymphoma cell line. Put plainly: cells. It is filed as functional, cell-based. To be noted: Homo sapiens, 72 h.
The target of series [1] is Eukaryotic initiation factor 4A-I (Homo sapiens, UniProt P60842).
Chain of Eukaryotic initiation factor 4A-I (P60842 whole entry): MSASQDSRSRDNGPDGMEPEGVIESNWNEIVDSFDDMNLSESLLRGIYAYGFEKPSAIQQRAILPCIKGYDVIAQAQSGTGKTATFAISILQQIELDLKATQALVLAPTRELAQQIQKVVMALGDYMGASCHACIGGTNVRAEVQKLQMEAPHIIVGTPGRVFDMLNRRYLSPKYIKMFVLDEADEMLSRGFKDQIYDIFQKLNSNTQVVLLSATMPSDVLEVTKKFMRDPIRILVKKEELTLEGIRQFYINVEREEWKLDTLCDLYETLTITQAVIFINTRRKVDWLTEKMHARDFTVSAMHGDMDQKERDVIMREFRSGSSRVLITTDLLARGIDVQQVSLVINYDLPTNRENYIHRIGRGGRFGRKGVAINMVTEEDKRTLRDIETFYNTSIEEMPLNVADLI
The next series has as its system Leukemia cell. The series can be described thus: cells. To be noted: Homo sapiens, 72 h. It is filed as functional, cell-based.
A further series concerns the target mTORC1 (Homo sapiens) (UniProt P42345+Q8N122+Q9BVC4). The conditions noted are these: dose 500.0 nM.
Another series addresses EIF4E/EIF4G1 (Homo sapiens, UniProt P06730+Q04637). It counts as protein-complex assay.
The test system of series [2] is CWR22R. Put plainly: animal or person. It counts as functional, Homo sapiens. To be noted: Mus musculus, 22Rv1, 816 h, route ip, time 34 day, read-out: TGI.
In series [3] the test system is MDA-MB-231. The series can be described thus: animal or person. It counts as functional, Homo sapiens. To be noted: Mus musculus, MDA-MB-231, 696 h, route ip, time 29 day, read-out: TGI.
The subject of series [4] is CWR22R. Put plainly: animal or person. It counts as functional, Homo sapiens. The conditions noted are these: Mus musculus, 22Rv1, 816 h, route ip, time 34 day, read-out: TGI. The source holds these as a separate data set.
Series [5] has as its system MDA-MB-231. Put plainly: animal or person. To be noted: Mus musculus, MDA-MB-231, 696 h, route ip, time 29 day, read-out: TGI. It is filed as functional, Homo sapiens. The source holds these as a separate data set.
In series [6] the test system is MDA-MB-231. Put plainly: animal or person. It is filed as functional, Homo sapiens. The conditions noted are these: Mus musculus, MDA-MB-231, 696 h, route ip, time 29 day, read-out: TGI. The source holds these as a separate data set.
The next series is described as follows: animal or person. It is filed as functional. The conditions noted are these: Homo sapiens, BR100 cell, 408 h, route ip, time 17 day, read-out: TGI.
For series [7], the target named is Phosphatidylinositol 4,5-bisphosphate 3-kinase catalytic subunit gamma isoform (Homo sapiens, UniProt P48736).
The nature of another series: in vivo. To be noted: mouse, po.
The target in series [8] is MAP kinase-interacting serine/threonine-protein kinase 2 (Homo sapiens, UniProt Q9HBH9).
Chain of MAP kinase-interacting serine/threonine-protein kinase 2 (Q9HBH9 whole entry): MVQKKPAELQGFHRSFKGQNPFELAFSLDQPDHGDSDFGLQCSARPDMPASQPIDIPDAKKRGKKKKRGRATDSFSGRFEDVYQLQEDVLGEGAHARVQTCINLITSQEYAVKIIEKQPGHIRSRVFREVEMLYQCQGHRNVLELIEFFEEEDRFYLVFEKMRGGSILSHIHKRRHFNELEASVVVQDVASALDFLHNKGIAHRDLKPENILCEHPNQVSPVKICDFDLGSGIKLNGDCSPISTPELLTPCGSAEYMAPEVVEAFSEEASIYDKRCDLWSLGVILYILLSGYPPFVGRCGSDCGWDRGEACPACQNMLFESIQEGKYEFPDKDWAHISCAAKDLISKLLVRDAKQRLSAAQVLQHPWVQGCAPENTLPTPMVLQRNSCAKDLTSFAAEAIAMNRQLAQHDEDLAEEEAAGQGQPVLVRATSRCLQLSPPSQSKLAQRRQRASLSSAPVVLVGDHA

Each structure is given as a SMILES string.

Chain of mTORC1 (Homo sapiens) (Q8N122 whole entry, looked up, other chains not shown): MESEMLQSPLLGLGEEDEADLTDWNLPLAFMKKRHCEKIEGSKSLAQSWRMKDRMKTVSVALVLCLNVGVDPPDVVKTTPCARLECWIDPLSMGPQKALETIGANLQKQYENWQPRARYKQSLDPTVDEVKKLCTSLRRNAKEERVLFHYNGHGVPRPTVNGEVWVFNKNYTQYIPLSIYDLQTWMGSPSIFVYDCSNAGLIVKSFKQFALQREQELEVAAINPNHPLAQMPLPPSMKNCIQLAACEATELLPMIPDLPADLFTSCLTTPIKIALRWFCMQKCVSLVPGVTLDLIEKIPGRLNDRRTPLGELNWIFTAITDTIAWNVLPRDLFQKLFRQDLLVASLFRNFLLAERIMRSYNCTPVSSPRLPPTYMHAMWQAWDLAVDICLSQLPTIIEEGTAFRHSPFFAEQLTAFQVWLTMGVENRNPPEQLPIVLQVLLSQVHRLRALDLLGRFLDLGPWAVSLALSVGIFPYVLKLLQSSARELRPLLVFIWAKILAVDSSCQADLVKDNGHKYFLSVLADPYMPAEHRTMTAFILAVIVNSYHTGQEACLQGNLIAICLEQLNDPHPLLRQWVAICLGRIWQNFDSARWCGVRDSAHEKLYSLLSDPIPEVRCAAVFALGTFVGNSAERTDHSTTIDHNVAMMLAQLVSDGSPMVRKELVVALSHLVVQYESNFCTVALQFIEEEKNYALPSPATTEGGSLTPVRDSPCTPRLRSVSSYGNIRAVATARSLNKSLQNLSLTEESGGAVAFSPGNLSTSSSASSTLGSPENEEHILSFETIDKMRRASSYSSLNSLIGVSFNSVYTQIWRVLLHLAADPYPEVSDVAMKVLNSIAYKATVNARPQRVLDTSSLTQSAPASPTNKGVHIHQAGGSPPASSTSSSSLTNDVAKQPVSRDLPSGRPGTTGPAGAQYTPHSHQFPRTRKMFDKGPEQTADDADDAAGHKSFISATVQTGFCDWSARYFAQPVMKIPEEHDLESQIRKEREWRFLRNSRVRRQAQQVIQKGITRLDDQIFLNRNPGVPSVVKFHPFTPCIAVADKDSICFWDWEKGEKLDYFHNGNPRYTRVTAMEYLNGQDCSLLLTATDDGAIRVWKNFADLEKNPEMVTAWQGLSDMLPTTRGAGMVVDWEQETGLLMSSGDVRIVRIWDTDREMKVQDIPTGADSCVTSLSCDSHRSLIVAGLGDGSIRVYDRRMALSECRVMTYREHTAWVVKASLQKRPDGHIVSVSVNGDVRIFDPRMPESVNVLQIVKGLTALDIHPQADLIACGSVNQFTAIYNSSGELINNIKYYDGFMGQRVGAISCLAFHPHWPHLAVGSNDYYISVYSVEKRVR
Chain of mTORC1 (Homo sapiens) (Q9BVC4 whole entry, looked up, other chains not shown): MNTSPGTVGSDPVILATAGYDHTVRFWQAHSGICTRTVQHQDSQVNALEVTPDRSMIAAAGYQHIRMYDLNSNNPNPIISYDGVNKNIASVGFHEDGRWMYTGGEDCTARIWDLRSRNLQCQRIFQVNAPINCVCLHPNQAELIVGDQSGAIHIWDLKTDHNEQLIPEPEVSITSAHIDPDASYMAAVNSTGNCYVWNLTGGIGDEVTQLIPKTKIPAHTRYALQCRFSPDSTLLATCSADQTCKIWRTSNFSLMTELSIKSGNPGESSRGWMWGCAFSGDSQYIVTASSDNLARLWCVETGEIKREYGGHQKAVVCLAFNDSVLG
Chain of EIF4E/EIF4G1 (P06730 whole entry): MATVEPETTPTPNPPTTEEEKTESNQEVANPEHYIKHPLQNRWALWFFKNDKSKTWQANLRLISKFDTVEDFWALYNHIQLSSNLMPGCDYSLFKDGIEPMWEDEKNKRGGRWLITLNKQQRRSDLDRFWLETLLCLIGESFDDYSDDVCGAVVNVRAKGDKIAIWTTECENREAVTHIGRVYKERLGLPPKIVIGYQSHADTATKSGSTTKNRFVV
Chain of EIF4E/EIF4G1 (Q04637 whole entry): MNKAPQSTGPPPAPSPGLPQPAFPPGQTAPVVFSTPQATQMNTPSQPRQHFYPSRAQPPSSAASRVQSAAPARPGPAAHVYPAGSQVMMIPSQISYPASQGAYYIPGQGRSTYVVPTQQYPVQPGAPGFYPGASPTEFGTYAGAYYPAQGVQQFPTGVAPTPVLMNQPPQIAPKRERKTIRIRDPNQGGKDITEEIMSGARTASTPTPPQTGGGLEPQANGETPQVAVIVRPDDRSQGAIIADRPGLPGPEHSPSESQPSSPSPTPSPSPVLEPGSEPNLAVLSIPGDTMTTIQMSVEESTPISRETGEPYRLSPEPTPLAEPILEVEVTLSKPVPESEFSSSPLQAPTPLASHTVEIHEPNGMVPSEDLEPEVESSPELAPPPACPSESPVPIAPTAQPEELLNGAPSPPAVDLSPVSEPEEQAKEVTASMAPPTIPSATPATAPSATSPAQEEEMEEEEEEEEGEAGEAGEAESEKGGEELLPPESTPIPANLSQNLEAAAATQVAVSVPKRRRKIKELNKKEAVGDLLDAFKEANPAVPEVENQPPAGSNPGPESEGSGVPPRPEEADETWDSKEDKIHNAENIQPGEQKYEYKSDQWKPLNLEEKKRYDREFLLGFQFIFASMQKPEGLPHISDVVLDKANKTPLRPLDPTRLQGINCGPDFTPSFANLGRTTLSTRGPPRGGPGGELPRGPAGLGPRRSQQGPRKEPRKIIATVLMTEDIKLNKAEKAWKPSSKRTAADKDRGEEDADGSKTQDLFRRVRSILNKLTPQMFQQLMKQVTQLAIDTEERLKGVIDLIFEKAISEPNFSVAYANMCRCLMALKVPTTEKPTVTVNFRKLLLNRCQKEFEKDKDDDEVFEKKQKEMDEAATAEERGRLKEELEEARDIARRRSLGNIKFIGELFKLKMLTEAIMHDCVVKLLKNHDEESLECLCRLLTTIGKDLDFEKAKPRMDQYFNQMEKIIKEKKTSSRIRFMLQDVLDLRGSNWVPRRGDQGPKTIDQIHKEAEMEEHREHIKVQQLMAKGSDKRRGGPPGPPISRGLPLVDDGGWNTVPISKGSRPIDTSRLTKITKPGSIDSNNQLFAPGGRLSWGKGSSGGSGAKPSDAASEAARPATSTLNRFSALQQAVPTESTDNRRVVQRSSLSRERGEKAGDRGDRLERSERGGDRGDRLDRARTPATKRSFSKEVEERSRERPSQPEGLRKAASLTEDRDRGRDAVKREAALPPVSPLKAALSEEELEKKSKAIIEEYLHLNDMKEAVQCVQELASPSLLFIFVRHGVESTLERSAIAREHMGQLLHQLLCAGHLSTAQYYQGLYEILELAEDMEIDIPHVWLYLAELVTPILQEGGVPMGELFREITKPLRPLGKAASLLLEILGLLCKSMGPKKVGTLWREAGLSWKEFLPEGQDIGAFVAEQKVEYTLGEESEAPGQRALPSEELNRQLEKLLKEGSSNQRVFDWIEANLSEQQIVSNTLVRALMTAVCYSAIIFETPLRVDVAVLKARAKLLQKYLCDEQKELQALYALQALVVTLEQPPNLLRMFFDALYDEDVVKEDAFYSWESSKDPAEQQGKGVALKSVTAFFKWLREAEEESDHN

Broadly, the IC50 is the midpoint of a concentration-inhibition curve. A lower IC50 goes with higher potency. In turn, `O=C(O)/C(Cc1ccccc1[N+](=O)[O-])=N/Nc1nc(-c2ccc(Cl)c(Cl)c2)cs1` returned an IC50 with A549 of 6000 nM.

`C=C1C[C@@H](O)[C@@H](Br)C(C)(C)[C@]12CCC(C)=C(Cl)C2`: the IC50 with Lymphoma cell line stood at 1600 nM; in [1], 16400 nM; in the series with Leukemia cell it was 1700 nM.

In general, inhibition refers to the relative decrease from the control value, in per cent. Take `Oc1cccc(-c2nc(N3CCOCC3)c3oc4ncccc4c3n2)c1`: the inhibition against mTORC1 (Homo sapiens) came out at 83.9%.

`O=C(O)c1cc(-c2ccc(/C=C3\SC(=S)N(Cc4ccccc4)C3=O)o2)ccc1Cl`: the half-maximal inhibitory concentration (IC50) at EIF4E/EIF4G1 stood at 13500 nM.

For the molecule `CC1=C(/C=C/C(C)=C/C=C/C(C)=C/C(=O)Nc2ccc(F)cc2)C(C)(C)CCC1n1ccnc1` (stereo not given), the figures for the inhibition in vivo at 10 mg/kg with CWR22R [2], in the series on MDA-MB-231 [5] and in “animal or person” were 63.4%, 97% and 73.3%, respectively. Moreover, the inhibition in vivo at 5 mg/kg in the series on MDA-MB-231 [3] was 91%. For the same molecule, the inhibition in vivo at 20 mg/kg in the series on CWR22R [4] is 76.3%; in the series on MDA-MB-231 [6], 97%.

On to `COc1ncc(-c2ccc3nccc(-c4ccnnc4)c3c2)cc1NS(=O)(=O)c1ccc(F)cc1F` [OMIPALISIB], for which it took 0.024 nM to reach half-maximal inhibition in series [7] (IC50).

As a reminder, the bioavailability is dose-corrected exposure relative to a reference, in per cent. A lower bioavailability goes with poor availability. On to `COC(=O)[C@H]1[C@@H](O)[C@@]2(O)c3c(OC)cc(O[C@@H]4O[C@@H]([C@H](O)CO)CO[C@H]4OC)cc3O[C@@]2(c2ccc(OC)cc2)[C@@H]1c1ccccc1` [SILVESTROL], for which, in the series “in vivo”, the bioavailability was found to be 1%.

On to `C[C@H](CN)Oc1ccc2ncc(-c3cc4ccccc4o3)n2n1`, for which the concentration for half-maximal inhibition (IC50) in [8] was found to be 904 nM.
